PMC6422312 (Molecular pharmacology, 2010)
Entries after “also recorded” stand apart in the source; their conditions may differ.

What was measured:
[1] = target: T1, P-gp Q773A mutant (Homo sapiens, UniProt P08183, Q773A); test: cell-based
[2] = target: T2, P-gp Q773R mutant (Homo sapiens, UniProt P08183, Q773R); test: cell-based; conditions: IC50 for rhodamine123 efflux inhibition, HEK-293/EBNA cells
[3] = target: T3, P-gp Q132A mutant (Homo sapiens, UniProt P08183, Q132A); conditions: alanine mutants (Q132A, Q773A) vs wild type, rhodamine123 efflux inhibition
T3 sequence (P08183 whole entry Q132A): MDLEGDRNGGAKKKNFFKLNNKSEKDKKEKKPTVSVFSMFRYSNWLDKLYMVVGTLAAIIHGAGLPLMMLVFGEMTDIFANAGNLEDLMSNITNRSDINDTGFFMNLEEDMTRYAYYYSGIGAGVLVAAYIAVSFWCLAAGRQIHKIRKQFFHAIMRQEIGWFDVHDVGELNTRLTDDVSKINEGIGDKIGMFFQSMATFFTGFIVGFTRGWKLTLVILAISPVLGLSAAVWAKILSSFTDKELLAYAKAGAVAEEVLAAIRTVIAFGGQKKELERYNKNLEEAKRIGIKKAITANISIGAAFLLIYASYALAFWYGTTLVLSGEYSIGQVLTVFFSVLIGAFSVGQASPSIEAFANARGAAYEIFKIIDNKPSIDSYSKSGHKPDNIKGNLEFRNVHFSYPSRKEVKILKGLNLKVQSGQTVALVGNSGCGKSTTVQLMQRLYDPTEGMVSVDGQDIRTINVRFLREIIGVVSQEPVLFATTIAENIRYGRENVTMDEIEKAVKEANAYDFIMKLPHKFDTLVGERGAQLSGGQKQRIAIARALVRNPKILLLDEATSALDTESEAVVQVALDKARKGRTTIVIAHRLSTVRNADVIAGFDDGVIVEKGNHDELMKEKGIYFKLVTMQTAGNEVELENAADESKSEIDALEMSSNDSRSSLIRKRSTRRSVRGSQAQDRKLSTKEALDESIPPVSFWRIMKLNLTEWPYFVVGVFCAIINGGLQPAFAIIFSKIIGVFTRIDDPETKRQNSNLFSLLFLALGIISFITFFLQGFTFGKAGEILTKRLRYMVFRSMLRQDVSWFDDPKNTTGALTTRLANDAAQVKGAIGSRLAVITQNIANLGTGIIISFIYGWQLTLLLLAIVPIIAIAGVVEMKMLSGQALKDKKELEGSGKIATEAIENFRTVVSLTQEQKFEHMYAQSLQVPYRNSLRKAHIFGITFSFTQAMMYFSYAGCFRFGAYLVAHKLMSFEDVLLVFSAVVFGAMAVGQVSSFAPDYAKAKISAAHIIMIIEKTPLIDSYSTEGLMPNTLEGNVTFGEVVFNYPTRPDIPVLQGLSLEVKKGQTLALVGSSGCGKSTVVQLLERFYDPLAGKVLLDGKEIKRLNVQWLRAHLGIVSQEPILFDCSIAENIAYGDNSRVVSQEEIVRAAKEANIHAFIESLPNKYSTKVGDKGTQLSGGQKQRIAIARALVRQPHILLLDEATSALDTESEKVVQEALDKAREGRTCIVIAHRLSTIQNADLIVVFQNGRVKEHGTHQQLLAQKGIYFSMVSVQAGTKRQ

[4] = target: wild-type P-gp (Homo sapiens, UniProt P08183); test: cell-based
[5] = target: P-gp Q132A/Q773A mutant (Homo sapiens, UniProt P08183, Q132A/Q773A); test: cell-based
[6] = target: T4, P-gp Q132R mutant (Homo sapiens, UniProt P08183, Q132R); conditions: rhodamine123 efflux inhibition
T4 sequence (P08183 whole entry Q132R): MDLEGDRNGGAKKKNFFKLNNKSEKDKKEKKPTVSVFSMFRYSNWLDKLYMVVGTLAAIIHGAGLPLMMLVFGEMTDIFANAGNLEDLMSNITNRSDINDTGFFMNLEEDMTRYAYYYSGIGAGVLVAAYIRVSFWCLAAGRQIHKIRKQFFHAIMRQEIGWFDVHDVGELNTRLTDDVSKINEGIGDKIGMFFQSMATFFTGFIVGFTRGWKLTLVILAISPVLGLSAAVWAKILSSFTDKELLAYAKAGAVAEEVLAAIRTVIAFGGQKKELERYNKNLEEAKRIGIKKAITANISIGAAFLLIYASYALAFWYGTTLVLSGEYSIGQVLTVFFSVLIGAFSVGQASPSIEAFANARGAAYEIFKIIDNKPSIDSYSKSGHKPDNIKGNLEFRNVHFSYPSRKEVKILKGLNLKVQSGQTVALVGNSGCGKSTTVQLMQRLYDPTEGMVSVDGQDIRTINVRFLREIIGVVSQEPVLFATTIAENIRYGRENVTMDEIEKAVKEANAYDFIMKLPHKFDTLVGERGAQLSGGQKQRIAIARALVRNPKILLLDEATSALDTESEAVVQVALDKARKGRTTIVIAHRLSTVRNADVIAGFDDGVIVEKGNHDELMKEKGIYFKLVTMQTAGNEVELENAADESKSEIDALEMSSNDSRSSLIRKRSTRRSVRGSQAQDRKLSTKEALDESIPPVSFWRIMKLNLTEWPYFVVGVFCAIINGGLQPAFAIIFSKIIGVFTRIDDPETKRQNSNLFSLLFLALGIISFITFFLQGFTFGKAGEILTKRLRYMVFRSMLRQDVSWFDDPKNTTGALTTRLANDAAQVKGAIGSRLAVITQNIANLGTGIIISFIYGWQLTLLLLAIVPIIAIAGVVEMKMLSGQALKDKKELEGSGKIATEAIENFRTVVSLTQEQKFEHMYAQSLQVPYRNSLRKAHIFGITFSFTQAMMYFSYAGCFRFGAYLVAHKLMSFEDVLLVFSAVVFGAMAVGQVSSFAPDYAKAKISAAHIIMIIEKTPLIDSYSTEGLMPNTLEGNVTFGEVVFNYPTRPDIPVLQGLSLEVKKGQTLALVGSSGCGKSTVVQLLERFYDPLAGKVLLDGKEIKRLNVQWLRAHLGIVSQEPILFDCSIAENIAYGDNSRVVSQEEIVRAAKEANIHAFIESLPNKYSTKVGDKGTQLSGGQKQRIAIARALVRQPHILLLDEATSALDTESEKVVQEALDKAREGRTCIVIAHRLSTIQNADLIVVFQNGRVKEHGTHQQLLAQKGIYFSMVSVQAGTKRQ

[7] = target: T4, P-gp Q132R mutant; test: cell-based
[8] = target: T3, P-gp Q132A mutant; test: cell-based
[9] = target: T4, P-gp Q132R mutant; test: Rhodamine123 efflux; assay type: cell-based; conditions: slope of first-order rate constant vs P-gp surface expression (MRK16)
[10] = target: P-gp Q132R/Q773R double mutant (Homo sapiens, UniProt P08183, Q132R/Q773R); test: Rhodamine123 efflux; assay type: cell-based; conditions: protein expressed at the cell surface
[11] = target: T3, P-gp Q132A mutant; test: Rhodamine123 efflux; assay type: cell-based; conditions: Q132A vs wild type
[12] = target: T1, P-gp Q773A mutant; test: Rhodamine123 efflux; assay type: cell-based; conditions: Q773A vs wild type
[13] = target: T2, P-gp Q773R mutant; test: Rhodamine123 efflux; assay type: cell-based; conditions: slope of first-order rate constant vs P-gp surface expression (MRK16)

T1 sequence (P08183 whole entry Q773A): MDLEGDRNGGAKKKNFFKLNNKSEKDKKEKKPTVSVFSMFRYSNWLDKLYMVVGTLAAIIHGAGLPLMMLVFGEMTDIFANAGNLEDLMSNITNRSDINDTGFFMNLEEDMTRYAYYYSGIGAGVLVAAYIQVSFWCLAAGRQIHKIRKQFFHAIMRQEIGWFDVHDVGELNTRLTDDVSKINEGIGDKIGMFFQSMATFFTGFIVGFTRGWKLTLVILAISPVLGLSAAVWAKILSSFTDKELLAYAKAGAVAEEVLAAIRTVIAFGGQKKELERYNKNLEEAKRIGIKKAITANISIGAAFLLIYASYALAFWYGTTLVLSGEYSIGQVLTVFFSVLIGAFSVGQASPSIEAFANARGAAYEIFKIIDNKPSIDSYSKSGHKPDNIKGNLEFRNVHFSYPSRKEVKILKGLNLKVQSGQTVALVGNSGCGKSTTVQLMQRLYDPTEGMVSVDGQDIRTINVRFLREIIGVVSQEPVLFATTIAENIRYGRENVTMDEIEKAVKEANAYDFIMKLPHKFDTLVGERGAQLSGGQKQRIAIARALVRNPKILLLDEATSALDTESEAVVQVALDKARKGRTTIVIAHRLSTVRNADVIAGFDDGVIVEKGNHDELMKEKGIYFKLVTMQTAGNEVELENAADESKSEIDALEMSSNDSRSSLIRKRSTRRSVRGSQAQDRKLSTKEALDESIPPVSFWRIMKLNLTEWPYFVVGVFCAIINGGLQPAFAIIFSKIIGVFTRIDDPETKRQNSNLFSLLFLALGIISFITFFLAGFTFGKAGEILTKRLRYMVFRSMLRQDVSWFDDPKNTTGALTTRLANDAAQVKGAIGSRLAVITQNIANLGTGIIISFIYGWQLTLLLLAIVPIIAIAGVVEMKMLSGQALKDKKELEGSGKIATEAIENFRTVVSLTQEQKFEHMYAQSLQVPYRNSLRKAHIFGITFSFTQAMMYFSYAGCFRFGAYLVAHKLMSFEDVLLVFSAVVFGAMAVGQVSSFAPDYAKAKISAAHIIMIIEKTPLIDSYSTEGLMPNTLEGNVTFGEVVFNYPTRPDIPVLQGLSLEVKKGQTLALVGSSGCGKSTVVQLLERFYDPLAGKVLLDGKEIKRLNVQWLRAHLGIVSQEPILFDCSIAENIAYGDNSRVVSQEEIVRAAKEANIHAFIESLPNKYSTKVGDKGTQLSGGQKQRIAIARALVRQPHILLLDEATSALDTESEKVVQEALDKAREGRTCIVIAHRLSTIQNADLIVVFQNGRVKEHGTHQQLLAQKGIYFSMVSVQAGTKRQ
T2 sequence (P08183 whole entry Q773R): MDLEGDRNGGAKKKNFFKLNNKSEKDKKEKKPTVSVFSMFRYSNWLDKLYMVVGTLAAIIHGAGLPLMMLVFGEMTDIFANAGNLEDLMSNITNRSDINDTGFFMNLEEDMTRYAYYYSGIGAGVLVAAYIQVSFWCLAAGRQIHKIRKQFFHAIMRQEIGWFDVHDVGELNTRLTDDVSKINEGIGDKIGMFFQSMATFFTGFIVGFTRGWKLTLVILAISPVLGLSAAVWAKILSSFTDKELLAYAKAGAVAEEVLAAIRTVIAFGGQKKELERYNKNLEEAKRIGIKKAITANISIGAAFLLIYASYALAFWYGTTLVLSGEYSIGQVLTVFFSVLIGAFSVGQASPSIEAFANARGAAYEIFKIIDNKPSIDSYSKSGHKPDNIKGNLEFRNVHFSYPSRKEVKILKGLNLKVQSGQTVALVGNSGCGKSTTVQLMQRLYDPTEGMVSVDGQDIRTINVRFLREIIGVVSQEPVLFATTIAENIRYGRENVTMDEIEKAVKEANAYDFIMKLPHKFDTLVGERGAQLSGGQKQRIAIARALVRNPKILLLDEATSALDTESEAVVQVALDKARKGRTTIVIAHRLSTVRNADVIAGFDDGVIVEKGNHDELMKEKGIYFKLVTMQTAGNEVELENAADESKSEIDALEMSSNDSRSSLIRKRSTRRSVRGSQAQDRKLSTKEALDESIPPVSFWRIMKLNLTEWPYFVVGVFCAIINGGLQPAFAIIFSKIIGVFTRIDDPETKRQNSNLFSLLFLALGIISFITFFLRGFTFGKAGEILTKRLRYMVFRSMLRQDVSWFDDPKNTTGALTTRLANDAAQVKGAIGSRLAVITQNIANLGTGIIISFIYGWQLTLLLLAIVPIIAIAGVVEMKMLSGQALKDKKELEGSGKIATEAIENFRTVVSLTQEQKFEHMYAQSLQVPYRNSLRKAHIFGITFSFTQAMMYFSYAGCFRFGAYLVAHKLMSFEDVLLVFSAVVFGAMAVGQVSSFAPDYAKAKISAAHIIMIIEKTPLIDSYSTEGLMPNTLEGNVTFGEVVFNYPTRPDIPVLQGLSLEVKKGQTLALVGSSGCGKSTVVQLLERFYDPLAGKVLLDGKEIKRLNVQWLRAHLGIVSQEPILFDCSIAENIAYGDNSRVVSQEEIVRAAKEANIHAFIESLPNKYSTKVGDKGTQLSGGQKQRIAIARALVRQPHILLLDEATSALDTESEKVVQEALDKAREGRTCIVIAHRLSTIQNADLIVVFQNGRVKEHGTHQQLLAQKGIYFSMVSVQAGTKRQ

| Structure (SMILES) | IC50 [1] | IC50 [2] | Change of IC50 values on mutation of glutamine residues to alanine [3] | IC50 [4] | IC50 [5] | Fold difference in IC50 values between the two Arg mutants ([6]; Q132R vs Q773R) | Fold higher IC50 in Q132R than in wild-type P-gp ([6]; Q132R vs wild-type) | IC50 [7] | IC50 [8] | Rhodamine123 transport rate relative to wild-type [9] | Rhodamine123 transport activity [10] | Effect of mutation on rhodamine123 transport [11] | Effect of mutation on rhodamine123 transport [12] | Rhodamine123 transport rate relative to wild-type [13] |
| --- | --- | --- | --- | --- | --- | --- | --- | --- | --- | --- | --- | --- | --- | --- |
| O=C(CCc1ccccc1)c1ccccc1OCC(O)CN1CCN(c2ccc(F)cc2)CC1 (stereo not drawn) [GPV31, 1-(2-(3-(4-(4-fluorophenyl)piperazin-1-yl)-2-hydroxypropoxy)phenyl)-3-phenylpropan-1-one] | 110 ± 50 nM | 20 ± 10 nM | did not change | 110 ± 60 nM | 120 ± 10 nM | 36 fold | ~7 fold | 710 ± 460 nM | 100 ± 30 nM |  |  |  |  |  |
| CCCN(CC(O)COc1ccccc1C(=O)CCc1ccccc1)C(=O)c1ccccc1 (stereo not drawn) [GPV366, N-(2-hydroxy-3-(2-(3-phenylpropanoyl)phenoxy)-propyl)-N-propylbenzamide] | 2400 ± 1470 nM | 2090 ± 900 nM | did not change | 2600 ± 690 nM | 2870 ± 630 nM |  |  | 2640 ± 590 nM | 2570 ± 690 nM |  |  |  |  |  |
| COC(=O)c1ccccc1-c1c2ccc(=N)cc-2oc2cc(N)ccc12 [rhodamine123] |  |  |  |  |  |  |  |  |  | 52 ± 13 % of wild-type | complete loss of transport activity | did not affect; also recorded: comparable with wild-type | did not affect; also recorded: comparable with wild-type | 24 ± 6 % of wild-type |
